Assay results published in US20040248208A1, “Screening method” (priority 2001, published 2004).
pEC50: −log10 of the molar value.

What was measured:
Type in all cases: cell-based
TGR4 [1] = target: T1, TGR4 (Homo sapiens, UniProt Q9H1C0); assay: Intracellular calcium ion mobilization activity in TGR4-expressing CHO cells (FLIPR); settings: for pEC50: TGR4-expressing CHO cells, 100% = reaction when 2 × 10^−6 M farnesyl 2-phosphate was added, read-out: Intracellular Ca^2+ mobilization activity (EC50); for concentration dependency of intracellular calcium ion mobilization activity: CHO-TGR4 (FIG. 16)
T1 construct: expressed in transfected cells
Procedure: Using TGR4 expression vector prepared in EXAMPLE 1, according to the publicly known method, the CHO cells stably expressing TGR4, which is designated CHO-TGR4, were prepared. CHO-TGR4 or CHO-mock cells, in which no receptor gene is introduced, was seeded to 96-well plate of Black plate, Clear bottom available from Costar at the concentration of 30,000 cells/well. After cultivation at 37° C. in the presence of 5% CO2 for overnight, the cells were used for assay. For washing buffer, Hank's balanced salt solution (HBSS, GibcoBRL) supplemented with 20 mM HEPES (pH7.4) and 2.5 mM probeneside (Sigma) was prepared. For sample buffer, the washing buffer supplemented with 0.1% bovine serum albumin (BSA, Sigma) was used. The washing buffer supplemented with 1% FBS, 4 μM Fluo 3-AM (Wako Pure Chemicals) and 0.04% Pluronic acid (Molecular Probes) was used as a dye loading solution. After discarding the medium, adding the dye loading solution and incubating the cells at 37° C. for 1 hour, using the plate washer, the cells were washed with the washing buffer. The cells were set to Fluorometric Imaging Plate Reader (FLIPR, Molecular Device) and the change of intracellular calcium ion concentration during three minutes after addition of sample was measured. FPP and LPA were added to sample to make a final concentration 2.5 μM each.
As well as the method described in EXAMPLE 7, using TGR4-expressing CHO cells and mock CHO cells, a study on concentration dependency of intracellular calcium ion mobilization activity by substances associated with various phospholipids compounds was made. For substances associated with various phospholipids compounds, geranylgeranyl 2-phosphate, farnesyl 2-phosphate, geranyl 2-phosphate, lysophosphatidic acid, sphingosine 1-phosphate, nordeoxycholic acid, deoxycholic acid, geranylgeranyol, farnesol were used.

TGR4 [2] = target: T1, TGR4; assay: CRE-luciferase reporter gene assay in CHO cells transiently expressing TGR4; settings: 4 hours, TGR4 and Gi co-transfected with pCRE-Luc (FIG. 4)
Procedure: The expression vector plasmid pAK-TGR4 or pAK-Gi, which was prepared by inserting TGR4 cDNA or suppressive G protein a subunit Gi cDNA into pAKKO-111H, the expression plasmid vector for animal cells (the same plasmid vector as pAKKO-111H described in Biochem. Biophys. Acta by Hinuma, S. et al., Vol. 1219, pp. 251-259, 1994), and original pAKKO-111H, in which no specific gene was inserted, were transfected into the CHO cells by the following method.
Using these vectors, Escherichia coli JM109 was transformed. A colony obtained was isolated and cultured for preparation of plasmid with QIAGEN Plasmid Maxi Kit (Qiagen). Further, plasmid of pCRE-Luc (CLONTECH), in which luciferase gene is ligated as a reporter downstream cAMP response element (CRE), was prepared in a similar method. The CHO-mock cells, wherein the CHO (dhfr^−0 cells were transformed with pAKKO-111H, were seeded in 96-well black plate (Costar) at 40,000 cells/well and 100 μl of culture volume, and were cultured for overnight. For a culture on the plate, DMEM (Dulbecco's modified Eagle's medium, CibcoBRL) supplemented with nothing but 10% fetal bovine serum was used. In order to detect an increase of expression level of the reporter gene more clearly, the pAK-Gi was co-transfected with the pAK-TGR4. Each plasmid was added to 240 μl of Opti-MEM-I (GibcoBRL) at the ratio of 7:3:1 of pAK-TGR4:pAK-Gi:reporter plasmid pCRE-Luc. This solution was mixed with the same volume of solution wherein 10 μl of Lipofectamine 2000 was added to 240 μl of Opti-MEM-I to form a complex of liposome and plasmid according to the method described in the manual attached to Lipofectamine 2000. To culture of CHO-mock cells, 25 μl/well of the above-mentioned solution was added. After 4 hours at 37° C., a culture broth was replaced to an assay buffer (DMEM supplemented with 0.1% bovine serum albumin) to be serum-free for introduction of the plasmid. Then, these cells were cultured at 37° C. under the condition of 5% CO2 for overnight.
To the CHO-mock cells transfected as described above, geranylgeranyl 2-phosphate (GGPP, Sigma), farnesyl 2-phosphate (FPP, Sigma) and lysophosphatidic acid (LPA, Sigma) were added to the concentration of 1 μM, 0.1 μM, and […], respectively, and incubated at 37° C. under the condition of 5% CO2 for 4 hours. After discarding the supernatant, 50 μl of Picagene LT2.0, the substrate for assaying luciferase activity were added, and luminescence level of luciferase was measured using plate reader (ARVO sx multilabel counter, Wallac).

TGR4 [3] = target: T1, TGR4; assay: cAMP production in TGR4-expressing CHO cells; settings: for cAMP production increasing activity dependent on concentration: CHO-TGR4 (FIG. 18); for level of cAMP production: final concentration 2 μM, 30 minutes, CHO-TGR4 versus CHO-mock (FIGS. 7 and 8)
Procedure: The CHO-TGR4 prepared in EXAMPLE 2, or the CHO-mock cells, in which no receptor gene is introduced, were seeded on 96-well plate at the concentration of 25,000 cells/well. After cultivation at 37° C. in the presence of 5% CO2 for overnight, the cells were used for assay. For the sample buffer, HBSS supplemented with 0.1% BSA and 0.2 mM IBMX (Sigma) was used. The cells were washed twice with the sample buffer and pre-incubated at 37° C. for 30 minutes. Thereafter, the cells were also washed twice and incubated at 37° C. for 30 minutes after adding of sample. Farnesyl 2-phosphate or lysophophatidic acid was added to the sample to make a finalconcentration 2 μM. After incubation with the sample, a level of cAMP production was measured using cAMP Screen System (ABI).
As well as the method described in EXAMPLE 8, using TGR4-expressing CHO cells and mock CHO cells, a study on concentration dependency of cAMP production increasing activity by substances associated with various phospholipids compounds was made. […] For abbreviation of compounds, see EXAMPLE 9.

TGR4-GFP fusion protein = target: T2, TGR4-GFP fusion protein (Homo sapiens, UniProt Q9H1C0); assay: Intracellular translocation of TGR4-GFP fusion protein expressed in CHO cells; settings: 10^−6 M, thirty minutes after addition
T2 construct: expressed in transfected cells; host or cells: CHO-mock cells (CHO dhfr- transformed with pAKKO-111H), transient, Lipofectamine 2000
Excerpt: Expression plasmid wherein fusion protein that cDNA encoding Green Fluorescent protein (GFP) isolated from Aequorea coerulescens was ligated to the C-terminus of TGR4 by adjusting a translation frame, was constructed. As GFP cDNA, a fragment excised from GFP-expressing vector pQBI25 (Takara Shuzo) was used. The stop codon of TGR4 was modified to the recognition sequence of restriction enzyme NheI by the PCR method. GFP fragment was ligated to the terminus, and the obtained fragment was inserted into the expression vector pAKKO-111H. The thus obtained plasmid, which is an expression vector for fusion protein of TGR4 and GFP (hereinafter referred to as TGR4-GFP) was transfected to CHO-mock cells by the following method. The CHO-mock cells were suspended in growth medium (DMEM (Dulbecco's Modified Eagle Medium) (GIBCO BRL) supplemented with 10% fetal bovine serum (GIBCO BRL)), seeded on Lab-Tek II coverglass chamber (Nalgen Nunc), which has 4 chambers, at the concentration of 0.6×10^5 cells/chamber. After cultivation at 37° C. in the presence of 5% CO2 for overnight, transfection was carried out. For transfection, Lipofectamine™ 2000 Reagent (GIBCO BRL) was used. Firstly, 2 μl of Lipofectamine™ 2000 Reagent and 50 μl of OPTI-MEM-I (GIBCO BRL) were admixed and stood for 20 minutes at room temperature to form a complex of DNA with lipofectamine. […]

TGR4 [4] = target: T1, TGR4; assay: Activation of p44/42 MAP kinase in human TGR4-expressing CHO cells; settings: 0.1 μM; TGR4-expressing CHO cells versus mock cells
Procedure: Human TGR4-expressing CHO cells and mock cells were seeded on 6-well plate at the concentration of 3×10^5 cells/well and cultured for overnight. For removal of serum, the medium was replaced with α-MEM including no nucleic acid supplemented with 0.1% BSA, and the cells were further incubated for overnight. Until just before assay, preincubation using the same medium for 2 hours was carried out. By adding 0.1 μM farnesyl 2-phosphate to the medium, the treatment was started. With respect to each given time, the medium was removed by aspiration and the reaction was terminated by addition of sumple buffer for SDS-PAGE. In accordance with conventional manner, SDS-PAGE was done and then the proteins were transferred to nitrocellulose membrane. Following the method described in the manual of Phospho Plus p44/42 MAPK (Thr202/Tyr204) Antibody Kit (Cell Signaling), detection of p44/42 MAP kinase was performed. […] Thus it became clear that the enzyme was activated.

Row | Molecule | pEC50 (TGR4 [1]) | further results
1 | C[C@H](CCC(=O)O)[C@H]1CC[C@H]2[C@@H]3CC[C@@H]4C[C@H](O)CC[C@]4(C)[C@H]3C[C@H](O)[C@]12C [Deoxycholic acid] | < 5.60 | 
2 | CC(C)=CCOP(=O)(O)OP(=O)(O)O [Dimethylaryl 2-phosphate] | < 5.60 | 
3 | CC(C)=CCCC(C)=CCCC(C)=CCO [Farnesol] | < 5.60 | 
4 | CC(C)=CCC/C(C)=C/CC/C(C)=C/COP(=O)(O)OP(=O)(O)O [Farnesyl 2-phosphate, farnesyl 2-phosphate] | 7.54 | luciferase activity (TGR4 [2]; 0.1 μM): increase of luciferase activity was detected; luciferase activity (TGR4 [2]; 1 μM): increase of luciferase activity was detected; concentration dependency of intracellular calcium ion mobilization activity (TGR4 [1]): activity dependent on concentration was perceived; intracellular calcium ion mobilization activity (TGR4 [1]; final concentration 2.5 μM, CHO-TGR4 versus CHO-mock (FIGS. 5 and 6)): increased in the manner specific to CHO-TGR4; cAMP production increasing activity dependent on concentration (TGR4 [3]): activity dependent on concentration was perceived; level of cAMP production (TGR4 [3]): increased in the manner specific to CHO-TGR4; translocation of TGR4-GFP fluorescence from cell membrane (TGR4-GFP fusion protein): translocated to cytoplasm; phosphorylation of p44/42 MAP kinase (TGR4 [4]): phosphorylation of MAP kinase specific to human TGR-expressing CHO cells
5 | CC(C)=CCC/C(C)=C/COP(=O)(O)OP(=O)(O)O [Geranyl 2-phosphate] | < 5.60 | 
6 | CC(C)=CCC/C(C)=C/CCC(=O)O [Geranyl acetic acid] | < 5.60 | 
7 | CC(=O)CC/C=C(\C)CCC=C(C)C [Geranyl acetone] | < 5.60 | 
8 | CC(C)=CCC/C(C)=C/CN [Geranylamine] | < 5.60 | 
9 | CC(C)=CCC/C(C)=C/CCl [Geranylchloride] | < 5.60 | 
10 | CC(C)=CCC/C(C)=C/CC/C(C)=C/CC/C(C)=C/COP(=O)(O)OP(=O)(O)O [Geranylgeranyl 2-phosphate, geranylgeranyl 2-phosphate] | 7.72 | luciferase activity (TGR4 [2]; 0.1 μM): increase of luciferase activity was detected; luciferase activity (TGR4 [2]; 1 μM): increase of luciferase activity was detected; concentration dependency of intracellular calcium ion mobilization activity (TGR4 [1]): activity dependent on concentration was perceived; cAMP production increasing activity dependent on concentration (TGR4 [3]): activity dependent on concentration was perceived
11 | CC(C)=CCC/C(C)=C/CC/C(C)=C/CC/C(C)=C/CO [Geranylgeranyol] | < 5.60 | 
12 | CC(C)=CCC/C(C)=C/CO [Geranyol] | < 5.60 | 
13 | C[C@H](CCC(=O)O)[C@H]1CC[C@H]2[C@@H]3CC[C@@H]4C[C@H](O)CC[C@]4(C)[C@H]3CC[C@]12C [Lithocolic acid] | < 5.60 | 
14 | C[C@H](CC(=O)O)[C@H]1CC[C@H]2[C@@H]3CC[C@@H]4C[C@H](O)CC[C@]4(C)[C@H]3C[C@H](O)[C@]12C [Nordeoxycholic acid] | < 5.60 | 
15 | CCCCCCCCCCCCC/C=C/[C@@H](O)[C@@H](N)COP(=O)(O)O [Sphingosine 1-phosphate] | 5.82 | 
16 | lysophosphatidic acid |  | luciferase activity (TGR4 [2]; 1 μM): increase of luciferase activity was detected; level of cAMP production (TGR4 [3]): increased in the manner specific to CHO-TGR4
